Values quoted from earlier work, collected in US20260232560A1, “SKIN HEALTH BENEFITTING COMPOSITIONS” (priority 2023, published 2026).

What was measured:
[1] = poor solubility and permeability
[2] = background statement

BCS class [1]	SMILES	antioxidant power relative to grape seed extract [2]
BCS Class IV	O=c1oc2c(O)c(O)cc3c(=O)oc4c(O)c(O)cc1c4c23 [Ellagic acid]	
	CCCC\C=C/C=C/C=C\CCCCCCCC(=O)O [Punicic acid]	approximately 10 times
